# How the values were obtained:
# BXPC-3 = assay: Antiproliferative activity against human BXPC-3 cells assessed as inhibition of cell growth measured after 48 hrs by MTT assay; format: functional, cell-based; conditions: bxpc-3
# PANC-1 = assay: Antiproliferative activity against human PANC-1 cells assessed as inhibition of cell growth measured after 48 hrs by MTT assay; format: functional, cell-based; conditions: panc-1
# NCI-H1299 = assay: Antiproliferative activity against human NCI-H1299 cells assessed as inhibition of cell growth measured after 48 hrs by MTT assay; format: functional, cell-based; conditions: nci-h1299
# 143B = assay: Antiproliferative activity against human 143B cells assessed as inhibition of cell growth measured after 48 hrs by MTT assay; format: functional, cell-based; conditions: 143b
# HeLa = assay: Antiproliferative activity against human HeLa cells assessed as inhibition of cell growth measured after 48 hrs by MTT assay; format: functional, cell-based; conditions: hela
# NIH3T3 = assay: Antiproliferative activity against mouse NIH3T3 cells assessed as inhibition of cell growth measured after 48 hrs by MTT assay; format: toxicity, cell-based; conditions: nih3t3
# HUVEC = assay: Antiproliferative activity against human HUVEC cells assessed as inhibition of cell growth measured after 48 hrs by MTT assay; format: toxicity, cell-based; conditions: huvec
# MRC5 = assay: Antiproliferative activity against human MRC5 cells assessed as inhibition of cell growth measured after 48 hrs by MTT assay; format: toxicity, cell-based; conditions: mrc5
# A549 [1] = assay: Inhibition of colony formation in human A549 cells assessed as suppression of colony formation at 5 nM replaced with fresh medium for every 72 hrs and measured for 15 days by crystal violet staining based assay relative to control; format: functional; conditions: A549, 360 h, time 15 day
# A549 [2] = assay: Antiproliferative activity against survivin silenced human A549 cells assessed as inhibition of cell growth measured after 48 hrs by MTT assay; format: functional, cell-based; conditions: A549, 48 h
# [3] = Toxicity in BALB/c nude mouse assessed as effect on body weight at 2 mg/kg, sc administered every 2 days for 14 days; format: organism-based; conditions: in vivo, 336 h, time 14 day
# [4] = Toxicity in BALB/c nude mouse assessed as body weight loss at 4 mg/kg, sc administered every 2 days for 14 days; format: organism-based; conditions: in vivo, 336 h, time 14 day
# [5] = target: T1, Interleukin enhancer-binding factor 3 (Homo sapiens, UniProt Q12906); assay: Binding affinity to ILF3 (unknown origin) assessed as dissociation constant at upto 1 uM by SPR method
# T1 sequence (Q12906 whole entry): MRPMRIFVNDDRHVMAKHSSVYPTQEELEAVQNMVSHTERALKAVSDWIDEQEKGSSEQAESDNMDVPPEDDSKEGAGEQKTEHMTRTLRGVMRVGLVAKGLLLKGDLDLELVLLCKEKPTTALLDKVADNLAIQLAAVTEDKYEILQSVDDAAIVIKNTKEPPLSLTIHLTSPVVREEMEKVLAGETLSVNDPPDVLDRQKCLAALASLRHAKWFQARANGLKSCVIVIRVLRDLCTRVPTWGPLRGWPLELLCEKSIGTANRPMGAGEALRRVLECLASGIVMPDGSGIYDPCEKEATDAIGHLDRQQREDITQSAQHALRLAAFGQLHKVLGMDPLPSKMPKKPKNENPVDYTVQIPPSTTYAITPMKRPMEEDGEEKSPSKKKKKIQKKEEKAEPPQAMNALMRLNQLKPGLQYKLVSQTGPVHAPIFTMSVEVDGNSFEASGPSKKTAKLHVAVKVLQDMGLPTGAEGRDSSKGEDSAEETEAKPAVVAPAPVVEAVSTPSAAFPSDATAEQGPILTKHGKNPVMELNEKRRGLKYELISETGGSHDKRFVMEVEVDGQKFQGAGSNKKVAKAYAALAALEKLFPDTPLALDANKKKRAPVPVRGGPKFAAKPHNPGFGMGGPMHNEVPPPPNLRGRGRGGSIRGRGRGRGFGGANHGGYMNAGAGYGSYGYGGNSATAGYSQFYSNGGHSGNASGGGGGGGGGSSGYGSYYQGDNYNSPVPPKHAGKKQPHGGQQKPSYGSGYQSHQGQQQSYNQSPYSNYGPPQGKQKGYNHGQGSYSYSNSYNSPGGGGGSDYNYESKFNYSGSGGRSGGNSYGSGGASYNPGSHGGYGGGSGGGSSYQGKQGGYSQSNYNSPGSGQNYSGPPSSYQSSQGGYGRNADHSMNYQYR
# [6] = Drug distribution in BALB/C nude mouse heart xenografted with human A549 cells at 2 mg/kg measured after 2 to 6 hrs by UPLC-3Q analysis; format: ADME, organism-based; conditions: in vivo, time 2-6 hrs
# [7] = Toxicity in BALB/c mouse assessed as morphological changes in liver at 2 to 4 mg/kg by H and E staining based analysis; format: organism-based; conditions: in vivo, dose 2-4 mg/kg
# [8] = Toxicity in BALB/c mouse assessed as morphological changes in spleen at 2 to 4 mg/kg by H and E staining based analysis; format: organism-based; conditions: in vivo, dose 2-4 mg/kg
# [9] = Toxicity in BALB/c mouse assessed as morphological changes in lung at 2 to 4 mg/kg by H and E staining based analysis; format: organism-based; conditions: in vivo, dose 2-4 mg/kg
# [10] = Toxicity in BALB/c mouse assessed as morphological changes in kidney at 2 to 4 mg/kg by H and E staining based analysis; format: organism-based; conditions: in vivo, dose 2-4 mg/kg
# A549 [11] = assay: Induction of apoptosis in human A549 cells assessed as viable cells at 0.1 uM measured after 48 hrs by annexin V and PI staining based flow cytometry analysis (reference value: 93.3%); format: functional; conditions: Homo sapiens, A549, 48 h, read-out: Activity
# A549 [12] = assay: Induction of apoptosis in human A549 cells assessed as viable cells at 0.25 uM measured after 48 hrs by annexin V and PI staining based flow cytometry analysis (reference value: 93.3%); format: functional; conditions: Homo sapiens, A549, 48 h, read-out: Activity
# A549 [13] = assay: Induction of apoptosis in human A549 cells assessed as early apoptotic cells at 0.04 uM measured after 48 hrs by annexin V and PI staining based flow cytometry analysis (reference value: 0.71%); format: functional
# A549 [14] = assay: Induction of apoptosis in human A549 cells assessed as early apoptotic cells at 0.25 uM measured after 48 hrs by annexin V and PI staining based flow cytometry analysis (reference value: 0.71%); format: functional
# A549 [15] = assay: Induction of apoptosis in human A549 cells assessed as late apoptotic cells at 0.04 uM measured after 48 hrs by annexin V and PI staining based flow cytometry analysis (reference value: 4.70%); format: functional
# A549 [16] = assay: Induction of apoptosis in human A549 cells assessed as late apoptotic cells at 0.1 uM measured after 48 hrs by annexin V and PI staining based flow cytometry analysis (reference value: 4.70%); format: functional
# A549 [17] = assay: Induction of apoptosis in human A549 cells assessed as late apoptotic cells at 0.25 uM measured after 48 hrs by annexin V and PI staining based flow cytometry analysis (reference value: 4.70%); format: functional
# A549 [18] = assay: Induction of apoptosis in human A549 cells assessed as necrotic cells at 0.04 uM measured after 48 hrs by annexin V and PI staining based flow cytometry analysis (reference value: 1.47%); format: functional
# A549 [19] = assay: Induction of apoptosis in human A549 cells assessed as necrotic cells at 0.1 uM measured after 48 hrs by annexin V and PI staining based flow cytometry analysis (reference value: 1.47%); format: functional
# TE-1 = assay: cells; conditions: Homo sapiens, TE-1, 48 h
# Description: Antiproliferative activity against human TE-1 cells assessed as inhibition of cell growth measured after 48 hrs by MTT assay
# 5637 = assay: cells; conditions: Homo sapiens, 5637, 48 h
# Description: Antiproliferative activity against human 5637 cells assessed as inhibition of cell growth measured after 48 hrs by MTT assay
compound,measurement,setting,value
Cn1c[n+](C)c2c1C(=O)c1cc3ccccc3cc1C2=O.[I-],IC50,BXPC-3,70 nM
same,IC50,PANC-1,80 nM
same,IC50,NCI-H1299,510 nM
same,IC50,143B,590 nM
same,IC50,HeLa,1160 nM
same,IC50,NIH3T3,14000 nM
same,IC50,HUVEC,6660 nM
same,IC50,MRC5,6900 nM
same,inhibition at 0.005 µM,A549 [1],100%
same,IC50,A549 [2],980 nM
same,Activity,[3],Non-Toxic
same,Activity,[4],Non-Toxic
same,Kd,[5],163 nM
same,Drug uptake,[6],Not Active
same,Activity,[7],Non-Toxic
same,Activity,[8],Non-Toxic
same,Activity,[9],Non-Toxic
same,Activity,[10],Non-Toxic
same,viability at 0.1 µM,A549 [11],8.7%
same,viability at 0.25 µM,A549 [12],3.28%
same,Activity,A549 [13],6.08%
same,Activity,A549 [14],2.37%
same,Activity,A549 [15],61.4%
same,Activity,A549 [16],81.9%
same,Activity,A549 [17],90%
same,Activity,A549 [18],4.74%
same,Activity,A549 [19],6.62%
same,IC50,TE-1,50 nM
same,IC50,5637,180 nM

# Reference: ChEMBL document CHEMBL5375989, “Pioneering 4,11-Dioxo-4,11-dihydro-1H-anthra[2,3-d]imidazol-3-ium Compounds as Promising Survivin Inhibitors by Targeting ILF3/NF110 for Cancer Therapy” (J Med Chem, 2023)
